Counter-ions that a name gives are not always drawn. Marks after values point to notes of the source that are not given here.
Test system: E coli B44 (09:K90:K99)
Assay: Protection of neonatal mice from lethal enteropathogenic E coli infection
Format: in vivo
Conditions: 4 day old mice orally infected; for % Protection by drug: mortality in drug group compared with placebo group
Experimental: 4 day old mice were orally dosed with 50pl of phosphate buffered saline containing 1 x 10^5 organisms/ml of E coli B44 (09:K90:K99) an enteropathogenic strain originally isolated from a scouring calf. The mice were then dosed b.i.d. with either placebo or drug for four days commencing 16 hours after infection. The animals were left with their mothers throughout the experiment and a daily record of deaths was made. The experiment was terminated when no mortality was seen over a 24 hour period. (Usually 7-10 days after infection). The mortality in the drug group was then compared with the mortality in the placebo group using the following formula:- [formula]
where Mp = mortality in group receiving placebo Md = mortality in group receiving drug
Statistical analysis was performed using 2 x 2 contingency tables (single tailed 'p').

[1] = drug 10mg/kg b.i.d. for four days commencing 16 hours after infection
[2] = drug 10mg/kg b.i.d. for four days

SMILES	% Mortality [1]	No of mice dead after 10 days [1]	% Protection by drug [2]	% Mortality (drug 50mg/kg b.i.d. for four days commencing 16 hours after infection)	No of mice dead after 10 days (drug 50mg/kg b.i.d. for four days commencing 16 hours after infection, 68 mice infected)	% Protection by drug (drug 50mg/kg b.i.d. for four days)
CC[N+](CC)(CC)Cc1cc(Cl)c(N=C2NCCN2)c(Cl)c1 [Example I, 2,(2,6-Dichloro-4-triethylammoniomethylphenylimino)-imidazolidine bromide]	32%	22	40* %	29%	20	46* %
C[N+](C)(C)Cc1cc(Cl)c(N=C2NCCN2)c(Cl)c1 [Example 6, 2-(2,6-Dichloro-4-trimethylammoniomethylphenylimino)-imidazolidine bromide Hydrobromide.]	71%	52	15%			
